Test results published in PubChem BioAssay (NCI).
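Cells were grown in 96-well plates and exposed to each compound for 48 hours at five concentrations; endpoints were interpolated linearly between bracketing concentrations, or set to the highest concentration if not reached. At the GI50, growth is halved. The concentration for full growth arrest is given as TGI.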

Legend:
Experiment in all cases: NCI-60 cell line screen, 48 h
[1] = system: SF-539 CNS
[2] = system: SK-MEL-2 melanoma
[3] = system: RXF 393 renal
[4] = system: A498 renal
[5] = system: UO-31 renal
[6] = system: DU-145 prostate
[7] = system: 786-0 renal
[8] = system: MCF7 breast
[9] = system: MALME-3M melanoma
[10] = system: LOX IMVI melanoma
[11] = system: HS 578T breast
[12] = system: SNB-19 CNS
[13] = system: K-562 leukemia
[14] = system: MOLT-4 leukemia
[15] = system: HCC-2998 colon
[16] = system: SR leukemia
[17] = system: UACC-257 melanoma
[18] = system: A549 NSCLC
[19] = system: CCRF-CEM leukemia
[20] = system: T-47D breast
[21] = system: OVCAR-4 ovarian
[22] = system: RPMI-8226 leukemia
[23] = system: SK-OV-3 ovarian
[24] = system: OVCAR-5 ovarian
[25] = system: HL-60(TB) leukemia
[26] = system: TK-10 renal
[27] = system: UACC-62 melanoma
[28] = system: HT29 colon
[29] = system: ACHN renal
[30] = system: CAKI-1 renal
[31] = system: MDA-MB-231 breast
[32] = system: SN12C renal
[33] = system: COLO 205 colon
[34] = system: HCT-116 colon
[35] = system: NCI-H23 lung
[36] = system: EKVX NSCLC
[37] = system: SK-MEL-28 melanoma
[38] = system: OVCAR-3 ovarian
[39] = system: PC-3 prostate
[40] = system: MDA-MB-468 breast
[41] = system: U251 CNS
[42] = system: SF-268 CNS
[43] = system: NCI-H522 lung
[44] = system: KM12 colon
[45] = system: NCI-H226 lung
[46] = system: SNB-75 CNS
[47] = system: NCI-H460 lung
[48] = system: IGROV1 ovarian
[49] = system: HOP-92 NSCLC
[50] = system: SF-295 CNS
[51] = system: HOP-62 NSCLC
[52] = system: OVCAR-8 ovarian
[53] = system: SK-MEL-5 melanoma
[54] = system: M14 melanoma
[55] = system: MDA-MB-435
[56] = system: BT-549 breast
[57] = system: HCT-15 colon
[58] = system: SW-620 colon

With `O=C1Nc2cc(Cl)ccc2/C1=C/c1cccc(OCc2ccccc2)c1` the GI50 [1] was 2270 nM, the TGI [1] was 5.49 µM and the GI50 [2] was 3.68 µM. It also gave a TGI [2] of 15 µM, a GI50 [3] of 10.8 µM and a TGI [3] of 24.4 µM. For the same molecule, the GI50 [4] was 13.7 µM, the TGI [4] was 27.9 µM and the GI50 [5] was 2450 nM. It also gave a TGI [5] of 18.6 µM, a GI50 [6] of 10.9 µM and a TGI [6] of 42.1 µM. For the same molecule, the GI50 [7] was 3.12 µM, the TGI [7] was 15.9 µM and the GI50 [8] was 1670 nM. The TGI [8] was 12.9 µM, the GI50 [9] was 4.3 µM and the TGI [9] was 16.7 µM. The GI50 [10] was 2750 nM, the TGI [10] was 11.4 µM and the GI50 [11] was 3.46 µM. It also gave a TGI [11] of 22.8 µM, a GI50 [12] of 10.2 µM and a TGI [12] of 25.7 µM. It also gave a GI50 [13] of 2130 nM, a TGI [13] of 10.2 µM and a GI50 [14] of 2690 nM. The TGI [14] was 10.9 µM, the GI50 [15] was 11.9 µM and the TGI [15] was 25.3 µM. It also gave a GI50 [16] of 2100 nM, a TGI [16] of 5.86 µM and a GI50 [17] of 6.18 µM. For the same molecule, the TGI [17] was 21.2 µM, the GI50 [18] was 10 µM and the TGI [18] was 24.9 µM. It also gave a GI50 [19] of 2860 nM, a TGI [19] of 13.1 µM and a GI50 [20] of 4.73 µM. For the same molecule, the TGI [20] was 30 µM, the GI50 [21] was 3.7 µM and the TGI [21] was 19.1 µM. The GI50 [22] was 2130 nM, the TGI [22] was 11.7 µM and the GI50 [23] was 13.1 µM. For the same molecule, the TGI [23] was 31.6 µM, the GI50 [24] was 11.8 µM and the TGI [24] was 24.4 µM. It also gave a GI50 [25] of 2230 nM, a TGI [25] of 6.49 µM and a GI50 [26] of 16.2 µM. For the same molecule, the TGI [26] was 35.9 µM, the GI50 [27] was 2410 nM and the TGI [27] was 10.1 µM. For the same molecule, the GI50 [28] was 5.92 µM, the TGI [28] was 20.3 µM and the GI50 [29] was 3.97 µM. The TGI [29] was 16.1 µM, the GI50 [30] was 2770 nM and the TGI [30] was 16.4 µM. For the same molecule, the GI50 [31] was 4.76 µM, the TGI [31] was 18.6 µM and the GI50 [32] was 6.93 µM. The TGI [32] was 20.3 µM, the GI50 [33] was 13.8 µM and the TGI [33] was 30.2 µM. It also gave a GI50 [34] of 2430 nM, a TGI [34] of 12.7 µM and a GI50 [35] of 4.23 µM. The TGI [35] was 21.5 µM, the GI50 [36] was 5.35 µM and the TGI [36] was 23.7 µM. It also gave a GI50 [37] of 5.3 µM, a TGI [37] of 17.9 µM and a GI50 [38] of 2890 nM. For the same molecule, the TGI [38] was 9.48 µM, the GI50 [39] was 4.67 µM and the TGI [39] was 20.5 µM. The GI50 [40] was 2430 nM, the TGI [40] was 14.1 µM and the GI50 [41] was 3.5 µM. The TGI [41] was 13.7 µM, the GI50 [42] was 3.26 µM and the TGI [42] was 15.1 µM. For the same molecule, the GI50 [43] was 2930 nM, the TGI [43] was 12.2 µM and the GI50 [44] was 3.69 µM. The TGI [44] was 14.1 µM, the GI50 [45] was 6.43 µM and the TGI [45] was 22.2 µM. The GI50 [46] was 3.23 µM, the TGI [46] was 21.2 µM and the GI50 [47] was 3.24 µM. The TGI [47] was 11.5 µM, the GI50 [48] was 3.43 µM and the TGI [48] was 18.3 µM. It also gave a GI50 [49] of 1330 nM, a TGI [49] of 9.75 µM and a GI50 [50] of 5.18 µM. The TGI [50] was 21 µM, the GI50 [51] was 9.61 µM and the TGI [51] was 29.1 µM. It also gave a GI50 [52] of 6.86 µM, a TGI [52] of 25.3 µM and a GI50 [53] of 3.17 µM. It also gave a TGI [53] of 11.4 µM, a GI50 [54] of 3.19 µM and a TGI [54] of 15.5 µM. The GI50 [55] was 2040 nM, the TGI [55] was 4.45 µM and the GI50 [56] was 2440 nM. For the same molecule, the TGI [56] was 11.2 µM, the GI50 [57] was 2580 nM and the TGI [57] was 13.3 µM. For the same molecule, the GI50 [58] was 3.59 µM and the TGI [58] was 14.5 µM.
